Patent US10858393B2, “Crystal of reduced glutathione and method for producing same” (KYOWA HAKKO BIO CO., LTD., priority 2016, dated 2020)
Where two headings read alike, the source gives them in different places.

Key:
[1] = cited from earlier work
[2] = 100 g/L in water, hermetically sealed, 25° C. or 40° C., FIG. 1
Method: The vertical axis represents the peak area of L-cysteinyl-L-glycine with respect to the peak area of reduced glutathione which is taken as 100 in an HPLC analysis of the aqueous solution. […] In FIG. 1, the white circles indicate the results at 40° C., and the black lozenges indicate the results at 25° C.
An α-type crystal of reduced glutathione (manufactured by Kojin Co., Ltd.) was dissolved in water, and thereafter, the solution was adjusted to 100 g/L and hermetically sealed and placed in a thermostat bath at 25° C. or 40° C. while stirring. These reduced glutathione aqueous solutions were sampled over time and subjected to an HPLC analysis.

For `N[C@@H](CCC(=O)N[C@@H](CS)C(=O)NCC(=O)O)C(=O)O` [reduced glutathione, γ-L-glutamyl-L-cysteinyl-L-glycine], the “saturation solubility in water” value ([1]; 10° C.) is given as 83 mg/mL, the “saturation solubility in water” value ([1]; 25° C.) is given as 130 mg/mL and the “stability in aqueous solution (formation of L-cysteinyl-L-glycine over time, HPLC)” value [2] is given as “decomposed over time in a temperature-dependent manner to produce L-cysteinyl-L-glycine”.
